Non-standard residues stand in square brackets, D forms with d. Residues, ends and D or L forms follow the SMILES beside them. Nle = CCCC[C@H](N)C(=O)O; Aib = CC(C)(N)C(=O)O
target: T1, RXFP1 (Homo sapiens, UniProt Q9HBX9); assay: OVCAR5 cAMP assay (RXFP1 agonist activity, HTRF); conditions: OVCAR-5, read-out: cAMP assay in OVCAR 5 cells Emax, maximal intracellular cAMP relative to H2-relaxin in the same test occasion
T1 sequence (Q9HBX9 1-757): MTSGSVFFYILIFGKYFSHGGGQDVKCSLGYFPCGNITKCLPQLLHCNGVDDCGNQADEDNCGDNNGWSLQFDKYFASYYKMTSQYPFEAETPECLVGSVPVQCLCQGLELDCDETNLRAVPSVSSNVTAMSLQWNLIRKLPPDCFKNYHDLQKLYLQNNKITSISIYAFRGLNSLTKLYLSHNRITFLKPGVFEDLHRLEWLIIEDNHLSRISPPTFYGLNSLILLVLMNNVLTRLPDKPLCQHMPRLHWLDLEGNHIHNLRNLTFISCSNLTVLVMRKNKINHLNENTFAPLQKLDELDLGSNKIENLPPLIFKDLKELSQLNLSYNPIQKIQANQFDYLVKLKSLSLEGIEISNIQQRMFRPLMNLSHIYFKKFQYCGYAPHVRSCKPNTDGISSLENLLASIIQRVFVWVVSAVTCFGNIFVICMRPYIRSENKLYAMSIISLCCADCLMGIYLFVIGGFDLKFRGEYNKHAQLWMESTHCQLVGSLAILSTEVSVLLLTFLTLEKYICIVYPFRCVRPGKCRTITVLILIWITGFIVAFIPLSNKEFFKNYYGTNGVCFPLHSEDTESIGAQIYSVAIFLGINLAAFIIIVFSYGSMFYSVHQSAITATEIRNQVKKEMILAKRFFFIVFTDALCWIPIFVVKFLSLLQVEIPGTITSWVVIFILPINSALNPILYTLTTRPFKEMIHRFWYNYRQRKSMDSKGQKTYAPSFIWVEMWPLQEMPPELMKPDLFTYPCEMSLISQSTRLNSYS

Row | Emax [%] | Structure (SMILES)
1 | 101 | CC[C@H](C)[C@H](NC(=O)[C@H](C)NC(=O)[C@H](C)NC(=O)[C@H](CCCNC(=N)N)NC(=O)[C@@H](NC(=O)[C@H](CCCCN)NC(=O)[C@H](CCC(=O)O)NC(=O)[C@H](CCCNC(=N)N)NC(=O)CNC(=O)[C@H](CCC(=O)O)NC(=O)[C@H](CC(C)C)NC(C)=O)C(C)C)C(=O)NC(C)(C)C(=O)NC(C)(C)C(=O)N[C@@H](CCC(=O)O)C(=O)NCC(=O)N[C@@H](CCSC)C(=O)N[C@@H](CO)C(=O)N[C@H](C(=O)N[C@@H](Cc1c[nH]c2ccccc12)C(=O)N[C@@H](CO)C(=O)N[C@@H](CCCCN)C(=O)N[C@@H](CCCNC(=N)N)C(=O)N[C@@H](CCCCN)C(=O)N[C@@H](CCCCN)C(N)=O)[C@@H](C)O [compound 16] (Ac-LEGREKVRAAI[Aib][Aib]EGMSTWSKRKK-NH2)
2 | 92 | CCCC[C@H](NC(=O)CNC(=O)[C@H](CCC(=O)O)NC(=O)C(C)(C)NC(=O)C(C)(C)NC(=O)[C@@H](NC(=O)[C@H](CCCCNC(C)=O)NC(=O)[C@H](C)NC(=O)[C@H](CCCNC(=N)N)NC(=O)[C@@H](NC(=O)[C@H](CCCCN)NC(=O)[C@H](CCC(=O)O)NC(=O)[C@H](CCCNC(=N)N)NC(=O)CNC(=O)[C@H](CCC(=O)O)NC(=O)[C@H](CC(C)C)NC(C)=O)C(C)C)[C@@H](C)CC)C(=O)N[C@@H](CO)C(=O)N[C@H](C(=O)N[C@@H](Cc1c[nH]c2ccccc12)C(=O)N[C@@H](CO)C(=O)NC(C)(C)C(=O)N[C@@H](CCCNC(=N)N)C(=O)N[C@@H](CCCCN)C(=O)N[C@@H](CCCCN)C(N)=O)[C@@H](C)O [compound 24] (Ac-LEGREKVRAK(Ac)I[Aib][Aib]EG[Nle]STWS[Aib]RKK-NH2)
3 | 103 | CCCC[C@H](NC(=O)CNC(=O)[C@H](CCC(=O)O)NC(=O)[C@@H](NC(=O)C(C)(C)NC(=O)[C@@H](NC(=O)[C@H](CCC(N)=O)NC(=O)[C@H](C)NC(=O)[C@H](CCCNC(=N)N)NC(=O)[C@@H](NC(=O)[C@H](CCCCN)NC(=O)[C@H](CCC(=O)O)NC(=O)[C@H](CCCNC(=N)N)NC(=O)CNC(=O)[C@H](CCC(=O)O)NC(=O)[C@H](CC(C)C)NC(C)=O)C(C)C)[C@@H](C)CC)[C@@H](C)CC)C(=O)N[C@@H](CO)C(=O)N[C@@H](CCCCN)C(=O)N[C@@H](Cc1c[nH]c2ccccc12)C(=O)N[C@@H](CO)C(=O)N[C@@H](CCCCN)C(=O)N[C@@H](CCCNC(=N)N)C(=O)N[C@@H](CCCCN)C(=O)N[C@@H](CCCCN)C(N)=O [compound 8] (Ac-LEGREKVRAQI[Aib]IEG[Nle]SKWSKRKK-NH2)
4 | 91 | CC[C@H](C)[C@H](NC(=O)[C@H](CCC(N)=O)NC(=O)[C@H](C)NC(=O)[C@H](CCCNC(=N)N)NC(=O)[C@@H](NC(=O)[C@H](CCCCN)NC(=O)[C@H](CCC(=O)O)NC(=O)[C@H](CCCNC(=N)N)NC(=O)CNC(=O)[C@H](CCC(=O)O)NC(=O)[C@H](CC(C)C)NC(C)=O)C(C)C)C(=O)NC(C)(C)C(=O)NC(C)(C)C(=O)N[C@@H](CCC(=O)O)C(=O)NCC(=O)N[C@@H](CCC(N)=O)C(=O)N[C@@H](CO)C(=O)N[C@H](C(=O)N[C@@H](Cc1ccccc1)C(=O)N[C@@H](CO)C(=O)NC(C)(C)C(=O)N[C@@H](CCCNC(=N)N)C(=O)N[C@@H](CCCCN)C(=O)N[C@@H](CCCCN)C(N)=O)[C@@H](C)O [compound 57] (Ac-LEGREKVRAQI[Aib][Aib]EGQSTFS[Aib]RKK-NH2)
5 | 101 | CC[C@H](C)[C@H](NC(=O)[C@H](CCC(N)=O)NC(=O)C(C)(C)NC(=O)[C@H](CCCNC(=N)N)NC(=O)[C@@H](NC(=O)[C@H](CCCCN)NC(=O)[C@H](CCC(=O)O)NC(=O)[C@H](CCCNC(=N)N)NC(=O)CNC(=O)[C@H](CCC(=O)O)NC(=O)[C@H](CC(C)C)NC(C)=O)C(C)C)C(=O)NC(C)(C)C(=O)N[C@H](C(=O)N[C@@H](CCC(=O)O)C(=O)NCC(=O)N[C@@H](CCSC)C(=O)N[C@@H](CO)C(=O)N[C@@H](CCCCN)C(=O)N[C@@H](Cc1c[nH]c2ccccc12)C(=O)N[C@@H](CO)C(=O)N[C@@H](CCCCN)C(=O)N[C@@H](CCCNC(=N)N)C(=O)N[C@@H](CCCCN)C(=O)N[C@@H](CCCCN)C(N)=O)[C@@H](C)CC [compound 7] (Ac-LEGREKVR[Aib]QI[Aib]IEGMSKWSKRKK-NH2)
6 | 94 | CCCC[C@H](NC(=O)CNC(=O)[C@H](CCC(=O)O)NC(=O)C(C)(C)NC(=O)C(C)(C)NC(=O)[C@@H](NC(=O)[C@H](CCCCNC(C)=O)NC(=O)[C@H](C)NC(=O)[C@H](CCCNC(=N)N)NC(=O)[C@@H](NC(=O)[C@H](CCCCN)NC(=O)[C@H](CCC(=O)O)NC(=O)[C@H](CCCNC(=N)N)NC(=O)CNC(=O)[C@H](CCC(=O)O)NC(=O)[C@H](CC(C)C)NC(C)=O)C(C)C)[C@@H](C)CC)C(=O)N[C@@H](CO)C(=O)N[C@H](C(=O)N[C@@H](Cc1c[nH]c2ccccc12)C(=O)N[C@@H](CO)C(=O)NC(C)(C)C(=O)N[C@@H](CCCNC(=N)N)C(=O)N[C@@H](CCCCN)C(N)=O)[C@@H](C)O [compound 47] (Ac-LEGREKVRAK(Ac)I[Aib][Aib]EG[Nle]STWS[Aib]RK-NH2)

same assay, conditions: cAMP assay in OVCAR 5 cells EC50 (nM), OVCAR5 cells expressing endogenous RXFP1; cAMP by HTRF; 30 min at 37° C.; 1 mM IBMX

Row | EC50 [nM] | Structure (SMILES)
7 | ≤ 5 | CC[C@H](C)[C@H](NC(=O)[C@H](C)NC(=O)[C@H](C)NC(=O)[C@H](CCCNC(=N)N)NC(=O)[C@@H](NC(=O)[C@H](CCCCN)NC(=O)[C@H](CCC(=O)O)NC(=O)[C@H](CCCNC(=N)N)NC(=O)CNC(=O)[C@H](CCC(=O)O)NC(=O)[C@H](CC(C)C)NC(C)=O)C(C)C)C(=O)NC(C)(C)C(=O)NC(C)(C)C(=O)N[C@@H](CCC(=O)O)C(=O)NCC(=O)N[C@@H](CCSC)C(=O)N[C@@H](CO)C(=O)N[C@H](C(=O)N[C@@H](Cc1c[nH]c2ccccc12)C(=O)N[C@@H](CO)C(=O)N[C@@H](CCCCN)C(=O)N[C@@H](CCCNC(=N)N)C(=O)N[C@@H](CCCCN)C(=O)N[C@@H](CCCCN)C(N)=O)[C@@H](C)O [compound 16] (Ac-LEGREKVRAAI[Aib][Aib]EGMSTWSKRKK-NH2)
8 | 24.4 | CC[C@H](C)[C@H](NC(=O)[C@H](CCC(N)=O)NC(=O)[C@H](C)NC(=O)[C@H](CCCNC(=N)N)NC(=O)[C@@H](NC(=O)[C@H](CCCCN)NC(=O)[C@H](CCC(=O)O)NC(=O)[C@H](CCCNC(=N)N)NC(=O)CNC(=O)[C@H](CCC(=O)O)NC(=O)[C@H](CC(C)C)NC(C)=O)C(C)C)C(=O)NC(C)(C)C(=O)NC(C)(C)C(=O)N[C@@H](CCC(=O)O)C(=O)NCC(=O)N[C@@H](CCC(N)=O)C(=O)N[C@@H](CO)C(=O)N[C@H](C(=O)N[C@@H](Cc1ccccc1)C(=O)N[C@@H](CO)C(=O)NC(C)(C)C(=O)N[C@@H](CCCNC(=N)N)C(=O)N[C@@H](CCCCN)C(=O)N[C@@H](CCCCN)C(N)=O)[C@@H](C)O [compound 57] (Ac-LEGREKVRAQI[Aib][Aib]EGQSTFS[Aib]RKK-NH2)

Source: patent US10988524B2, “Modified relaxin B chain peptides and their therapeutic use” (priority 2018, dated 2021)
